Measured values: patent publication US20110184068A1, “USE OF (HALOBENZYLOXY) BENZYLAMINO-PROPANAMIDES FOR THE MANUFACTURE OF MEDICAMENTS ACTIVE AS SODIUM AND/OR CALCIUM CHANNEL SELECTIVE MODULATORS” (Newron Pharmaceuticals S.p.A., priority 2004, published 2011)

Key:
[1] = target: T1, MAO-B (Rattus norvegicus, UniProt P19643); test: In vitro MAO-B enzyme activity assay (radioenzymatic, 14C-phenylethylamine); format: biochemical; settings: rat brain crude mitochondrial fraction; 30 min preincubation; concentration inhibiting 90% enzyme activity
T1 construct: Membrane preparations (crude mitochondrial fraction); from tissue; host or cells: rat brain, crude mitochondrial fraction
T1 sequence (P19643 1-520): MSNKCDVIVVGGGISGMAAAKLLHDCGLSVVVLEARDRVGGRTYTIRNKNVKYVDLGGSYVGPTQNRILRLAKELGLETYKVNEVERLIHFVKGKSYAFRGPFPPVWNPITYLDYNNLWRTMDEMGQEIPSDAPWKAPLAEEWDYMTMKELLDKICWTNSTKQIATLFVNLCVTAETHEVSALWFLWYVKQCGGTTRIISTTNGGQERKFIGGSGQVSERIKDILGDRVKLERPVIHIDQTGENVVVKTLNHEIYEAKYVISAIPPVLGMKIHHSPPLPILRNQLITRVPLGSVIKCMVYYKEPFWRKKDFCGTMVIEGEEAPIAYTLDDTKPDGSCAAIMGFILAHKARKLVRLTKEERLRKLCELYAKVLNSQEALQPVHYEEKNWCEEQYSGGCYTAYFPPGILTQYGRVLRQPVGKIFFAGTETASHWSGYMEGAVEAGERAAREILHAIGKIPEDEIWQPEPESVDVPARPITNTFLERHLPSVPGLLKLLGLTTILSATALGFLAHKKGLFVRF
Experimental: In Vitro MAO-B Enzyme Activity Assay
Membrane preparations (crude mitochondrial fraction): male Wistar rats (Harlan, Italy-175-200 g) were sacrificed under light anaesthesia and brains were rapidly removed and homogenized in 8 vol. of ice-cold 0.32 M sucrose buffer containing 0.1 M EDTA, pH 7.4. The crude homogenate was centrifuged at 2220 rpm for 10 min and the supernatant recovered. The pellet was homogenized and centrifuged again and the two supernatants were pooled and centrifuged at 9250 rpm for 10 min, +4° C. The pellet was resuspended in fresh buffer and centrifuged at 11250 rpm for 10 min, +4° C. The resulting pellet was stored at −80° C. until use.
In vitro enzyme activity assay: the enzyme activities were assessed with a radioenzymatic assay using the selective substrate ^14C-phenylethylamine (PEA) for MAO-B.
The mitochondrial pellet (500 μg protein) was resuspended in 0.1M phosphate buffer pH 7.4 and 500 μl was added to 50 μl of the test compound or buffer for 30 min at 37° C. (preincubation) then the substrate (50 μl) was added. The incubation was carried out for 10 min at 37° C. (^14C-PEA, 0.5 μM).
The reaction was stopped by adding 0.2 ml HCl or perchloric acid. After centrifugation, the deaminated metabolites were extracted with 3 ml of toluene and the radioactive organic phase measured by liquid scintillation spectrometry at 90% efficiency. Radioactivity in the eluate indicates the production of neutral and acidic metabolites formed as a result of MAO-B activity.
The enzymatic activity was expressed as nmoles of substrate transformed/mg protein/min. The activity of MAO-B in the sample was expressed as a percentage of control activity in the absence of inhibitors after subtraction of appropriate blank values.
The drug inhibition curves were obtained from at least eight different concentrations, each in duplicate (10^−10 to 10^−5 M) and the IC90 values (the drug concentration inhibiting 90% enzyme activity) with confidence intervals determined using linear regression analysis. (aided-computer program).
To reach a significant increase in neurotransmitter levels, MAO-B enzyme activity has to be blocked at least by 90%.

[2] = target: T2, N-type calcium channels (Homo sapiens, UniProt Q00975); test: Calcium influx assay (fluorescence, differentiated IMR32 cells with nifedipine); format: cell-based; settings: 1 μM nifedipine, 100 mM KCl depolarization, read-out: Ca 2+ N-Type IC50
T2 construct: IMR32 preferentially express on the membrane surface N-type calcium channels; endogenous in cells; host or cells: IMR32 human neuroblastoma cells, differentiated with dibutyryl-cAMP and bromodeoxyuridine
T2 sequence (Q00975 whole entry): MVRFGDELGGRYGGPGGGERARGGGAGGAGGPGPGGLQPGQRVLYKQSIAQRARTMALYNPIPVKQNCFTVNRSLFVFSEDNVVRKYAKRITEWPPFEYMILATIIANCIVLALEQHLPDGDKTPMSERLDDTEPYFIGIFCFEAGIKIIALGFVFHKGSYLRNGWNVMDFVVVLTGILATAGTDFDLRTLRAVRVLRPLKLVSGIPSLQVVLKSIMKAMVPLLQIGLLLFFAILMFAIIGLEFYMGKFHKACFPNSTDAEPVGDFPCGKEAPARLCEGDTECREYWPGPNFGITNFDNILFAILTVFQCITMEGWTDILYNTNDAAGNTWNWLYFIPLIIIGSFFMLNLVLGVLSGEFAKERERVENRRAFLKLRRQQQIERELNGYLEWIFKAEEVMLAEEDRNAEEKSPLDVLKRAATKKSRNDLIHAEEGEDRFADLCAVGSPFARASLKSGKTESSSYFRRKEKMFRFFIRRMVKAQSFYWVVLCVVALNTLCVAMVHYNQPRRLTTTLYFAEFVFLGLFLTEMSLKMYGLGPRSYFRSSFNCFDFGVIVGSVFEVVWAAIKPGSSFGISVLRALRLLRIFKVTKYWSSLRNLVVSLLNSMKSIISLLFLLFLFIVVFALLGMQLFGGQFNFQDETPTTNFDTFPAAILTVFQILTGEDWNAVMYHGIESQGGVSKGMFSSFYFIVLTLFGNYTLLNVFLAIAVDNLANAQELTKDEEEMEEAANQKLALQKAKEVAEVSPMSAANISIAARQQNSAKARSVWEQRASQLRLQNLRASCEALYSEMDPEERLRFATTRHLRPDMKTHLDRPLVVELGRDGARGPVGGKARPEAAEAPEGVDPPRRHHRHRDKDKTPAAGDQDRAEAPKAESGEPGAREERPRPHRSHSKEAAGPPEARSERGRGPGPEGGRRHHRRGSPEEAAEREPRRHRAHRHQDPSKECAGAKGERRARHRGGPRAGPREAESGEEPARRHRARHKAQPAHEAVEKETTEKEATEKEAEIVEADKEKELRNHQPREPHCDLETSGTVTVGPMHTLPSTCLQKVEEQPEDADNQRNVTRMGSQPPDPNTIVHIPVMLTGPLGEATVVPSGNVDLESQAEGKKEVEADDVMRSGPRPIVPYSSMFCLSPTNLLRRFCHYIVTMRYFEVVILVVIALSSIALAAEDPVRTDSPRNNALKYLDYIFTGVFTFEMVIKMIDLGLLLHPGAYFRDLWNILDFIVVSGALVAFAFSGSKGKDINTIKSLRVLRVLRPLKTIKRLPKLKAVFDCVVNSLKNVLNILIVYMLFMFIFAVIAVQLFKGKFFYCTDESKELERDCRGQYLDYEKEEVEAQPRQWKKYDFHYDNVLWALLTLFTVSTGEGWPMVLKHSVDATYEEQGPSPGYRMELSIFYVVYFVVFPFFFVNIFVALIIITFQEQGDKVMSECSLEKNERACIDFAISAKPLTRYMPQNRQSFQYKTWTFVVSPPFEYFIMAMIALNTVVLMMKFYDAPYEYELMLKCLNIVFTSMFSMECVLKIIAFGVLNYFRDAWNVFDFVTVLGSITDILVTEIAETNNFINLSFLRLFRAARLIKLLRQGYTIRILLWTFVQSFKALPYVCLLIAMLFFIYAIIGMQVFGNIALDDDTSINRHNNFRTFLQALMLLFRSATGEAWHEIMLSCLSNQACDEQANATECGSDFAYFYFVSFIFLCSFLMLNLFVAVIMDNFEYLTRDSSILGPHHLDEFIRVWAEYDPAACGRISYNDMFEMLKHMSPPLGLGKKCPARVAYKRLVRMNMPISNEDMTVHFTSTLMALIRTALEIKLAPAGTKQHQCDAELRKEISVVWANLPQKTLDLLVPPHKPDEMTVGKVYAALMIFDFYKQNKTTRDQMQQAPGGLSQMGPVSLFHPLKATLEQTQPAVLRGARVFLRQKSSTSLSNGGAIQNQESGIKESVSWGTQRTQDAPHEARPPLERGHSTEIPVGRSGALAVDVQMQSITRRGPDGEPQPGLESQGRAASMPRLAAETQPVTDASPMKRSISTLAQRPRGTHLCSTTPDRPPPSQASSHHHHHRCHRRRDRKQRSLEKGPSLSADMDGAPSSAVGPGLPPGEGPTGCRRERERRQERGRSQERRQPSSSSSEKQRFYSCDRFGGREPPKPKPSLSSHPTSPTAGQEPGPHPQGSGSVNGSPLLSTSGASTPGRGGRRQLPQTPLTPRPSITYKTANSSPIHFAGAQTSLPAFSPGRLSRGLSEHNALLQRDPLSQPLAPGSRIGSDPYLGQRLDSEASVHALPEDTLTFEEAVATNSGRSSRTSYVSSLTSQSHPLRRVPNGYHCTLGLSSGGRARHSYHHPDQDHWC
T2 sequence (P54284 whole entry partner): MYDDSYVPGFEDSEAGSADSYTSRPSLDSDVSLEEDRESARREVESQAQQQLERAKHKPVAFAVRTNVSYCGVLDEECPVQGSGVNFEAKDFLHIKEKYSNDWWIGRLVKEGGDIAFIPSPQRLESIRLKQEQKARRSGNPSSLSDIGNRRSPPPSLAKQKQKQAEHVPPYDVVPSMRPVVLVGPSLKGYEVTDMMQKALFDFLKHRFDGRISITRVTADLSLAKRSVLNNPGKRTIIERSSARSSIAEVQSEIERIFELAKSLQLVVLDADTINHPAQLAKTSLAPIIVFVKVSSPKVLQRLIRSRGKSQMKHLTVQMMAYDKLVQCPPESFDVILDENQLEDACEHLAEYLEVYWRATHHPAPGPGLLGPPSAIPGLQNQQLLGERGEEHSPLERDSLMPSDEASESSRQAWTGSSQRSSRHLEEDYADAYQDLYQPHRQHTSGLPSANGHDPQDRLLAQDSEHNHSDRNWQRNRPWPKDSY
T2 sequence (P54289 25-956 partner limits assumed): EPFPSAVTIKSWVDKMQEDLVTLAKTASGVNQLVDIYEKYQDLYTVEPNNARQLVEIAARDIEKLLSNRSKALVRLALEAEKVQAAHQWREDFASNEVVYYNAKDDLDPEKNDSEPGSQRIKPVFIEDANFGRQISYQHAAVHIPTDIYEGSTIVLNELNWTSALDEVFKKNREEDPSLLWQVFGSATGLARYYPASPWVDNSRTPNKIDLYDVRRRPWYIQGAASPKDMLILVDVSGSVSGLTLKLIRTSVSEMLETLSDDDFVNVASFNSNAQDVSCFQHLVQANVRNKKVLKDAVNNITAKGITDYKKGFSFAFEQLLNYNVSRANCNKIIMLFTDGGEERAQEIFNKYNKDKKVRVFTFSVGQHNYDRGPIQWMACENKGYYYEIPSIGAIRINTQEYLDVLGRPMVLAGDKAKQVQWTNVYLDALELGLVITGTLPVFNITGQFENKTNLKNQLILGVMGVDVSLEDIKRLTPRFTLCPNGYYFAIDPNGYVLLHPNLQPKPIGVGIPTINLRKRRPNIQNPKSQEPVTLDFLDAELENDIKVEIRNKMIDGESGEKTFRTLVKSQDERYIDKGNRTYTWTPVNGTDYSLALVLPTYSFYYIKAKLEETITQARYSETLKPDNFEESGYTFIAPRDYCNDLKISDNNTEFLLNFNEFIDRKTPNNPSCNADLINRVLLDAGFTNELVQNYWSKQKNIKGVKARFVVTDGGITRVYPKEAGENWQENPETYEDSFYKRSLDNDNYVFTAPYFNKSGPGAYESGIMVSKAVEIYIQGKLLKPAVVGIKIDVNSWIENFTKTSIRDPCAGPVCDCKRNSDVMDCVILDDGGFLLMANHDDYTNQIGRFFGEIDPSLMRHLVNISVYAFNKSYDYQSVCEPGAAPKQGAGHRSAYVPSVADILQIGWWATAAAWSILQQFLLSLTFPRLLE
T2 sequence (P54289 957-1103 partner limits assumed): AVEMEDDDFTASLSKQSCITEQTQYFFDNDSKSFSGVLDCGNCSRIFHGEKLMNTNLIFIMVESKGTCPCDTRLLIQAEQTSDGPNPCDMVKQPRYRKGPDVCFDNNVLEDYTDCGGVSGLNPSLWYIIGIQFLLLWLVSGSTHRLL
Experimental: Under differentiating conditions, IMR32 preferentially express on the membrane surface N-type calcium channels. The remaining L-type calcium channels were blocked using the selective L type blocker, nifedipine. In these experimental conditions, only N type channels can be detected.
IMR32 cells were differentiated using 1 mM dibutyryl-cAMP and 2.5 μM bromodeoxyuridine for 8 days (4 times) in 225 cm^2 flask, then detached, seeded at 200,000 cells/well on 96 polylysine-coated plates and further incubated for 18-24 h in the presence of differentiating buffer before use.
The Ca^2+ Kit Assay (Molecular Devices), based on a fluorescent calcium indicator 485-535 nm wavelength, was used.
Differentiated cells were incubated with dye loading for 30 min at 37° C. then, nifedipine alone (1 μM) or in the presence of w-conotoxin or test compounds were added for further 15 min.
The fluorescence (485-535 nm) was measured before and after (30-40 sec) the automated injection of 100 mM KCl depolarizing solution using a Victor plate reader (Perkin Elmer).
The inhibition curves were calculated from 5 concentrations, each in triplicate, and the IC50 determined using a linear regression analysis.
The activity on N-type Calcium channel, expressed as IC50 of the (R)-isomer of this invention and the comparison compounds is reported in Table I.

[3] = target: T3, Na channel Nav 1.3 (Homo sapiens, UniProt Q9NY46); test: Electrophysiological assay, tonic block, two electrodes voltage clamp in Xenopus oocytes; format: cell-based; settings: depolarized (-40 mV, half max current availability) condition, read-out: Nav 1.3 Dep. Curr IC50
T3 construct: expressed in transfected cells; host or cells: Xenopus laevis oocytes injected with Nav1.3 cRNA
Experimental: Electrophysiological Assay
Experiments for the determination of the tonic block are carried out on isolated Xenopus oocytes expressing the Na channel Nav 1.3. Currents are recorded using the two electrodes voltage clamp (TEVC) technique
The day after the preparation, the oocytes are injected (Drummond Nanoject) with 20 ng Nav1.3 cRNA and maintained in NDE.
Starting from 48 h after the mRNA injection whole cell currents are recorded using a two-microelectrode voltage clamp automated workstation.
Compounds are prepared in stock solutions (20 mM) and dissolved to the final concentrations in the external bath solution.
The current/voltage (I/V) relationship for the Nav1.3 currents expressed in oocytes was first studied in order to determine the membrane potential evoking the maximal activation.
The steady-state inactivation properties of the Nav1.3 currents were then studied in order to determine the membrane potentials for the resting state (Vrest) at which channel availability is maximal (Imax), and the membrane potential for the half maximal inactivation (V ½) producing half of the max current availability (I ½) respectively. This two voltage conditions were then used for the evaluation of the voltage dependence of the tonic block.
Finally a two-step protocol was used to determine the voltage dependence of the block of Nav1.3: the oocytes were clamped at −80 mV, the currents were activated by a 100 ms step pulse to 0 mV (Vtest) from a 3000 ms preconditioning potential at −80 mV (resting, Imax condition) and −40 mV (depolarized, I ½ condition), respectively.
Current amplitudes in the two conditions were recorded in the absence and in the presence of different concentrations of compound (washout was made in between) in order to determine the concentration-inhibition curves and IC50 values for the tonic block in the depolarized (half max current availability) conditions.
The activity on Nav 1.3 sodium channel, expressed as IC50 of the (R)-isomers of this invention and of the comparison compounds is reported in Table I.

[4] = system: mice; test: Mice formalin test; format: in vivo; settings: 20 mg/kg p.o. 15 min before formalin; cumulative licking time, late phase 30-40 min, vs control group
Experimental: According to a modified protocol from Rosland et al., (1990) mice were injected subcutaneously (s.c.) with 20 μL of 2.7% solution of formalin into the plantar surface of left hindpaw and placed immediately into clear PVC observation chambers (23×12×13 cm).
The test compound (20 mg/kg) was administered p.o. 15 min before formalin injection in a volume of 10 ml/kg body weight to groups of 10 mice per dose. Control group was treated with vehicle.
Pain behavior was quantified by counting the cumulative licking time (seconds) of the injected paw with formalin. Measurements were taken during the late phase 30-40 min after formalin injection (Tjolsen et al 1992).
The analgesic effect of the compounds was calculated as the % of inhibition of the cumulative licking time respect the control group.

Row | SMILES | IC90 [1] [µM] | IC50 [2] [µM] | IC50 [3] [µM] | FORMALIN TEST % inibition [4] [%]
1 | CNC(=O)C(C)NCc1ccc(OCc2ccccc2Cl)cc1 (single isomer, unassigned; isomer 2) [2-[4-(2-chlorobenzyloxy)benzylamino]-N-methyl-propanamide S isomer, 2-[4-(2-chlorobenzyloxy)benzylamino]-N-methyl-propanamide] | 2.8 | 30 | 210 | 32
2 | CC(NCc1ccc(OCc2ccccc2F)cc1)C(N)=O (single isomer, unassigned; isomer 2) [2-[4-(2-fluorobenzyloxy)benzylamino]-propanamide S isomer, 2-[4-(2-fluorobenzyloxy)benzylamino]-propanamide] | 28.4 | 23 | 202 | 79
3 | CS(=O)(=O)O.C[C@@H](NCc1ccc(OCc2ccccc2F)cc1)C(N)=O [2-[4-(2-fluorobenzyloxy)benzylamino]-propanamide R isomer, (R)-2-[4-(2-fluorobenzyloxy)benzylamino]propanamide methanesulfonate] | 2500 | 29.2 | 149 | 80
4 | CC(NCc1ccc(OCc2cccc(Cl)c2)cc1)C(N)=O (single isomer, unassigned; isomer 2) [2-[4-(3-chlorobenzyloxy)benzylamino]-propanamide S isomer, 2-[4-(3-chlorobenzyloxy)benzylamino]-propanamide] | 1.64 | 94 | 79 | 45
5 | CNC(=O)[C@@H](C)NCc1ccc(OCc2ccccc2Cl)cc1.CS(=O)(=O)O [2-[4-(2-chlorobenzyloxy)benzylamino]-N-methyl-propanamide R isomer, (R)-2-[4-(2-chlorobenzyloxy)benzylamino]-N-methylpropanamide methanesulfonate] | 122 | 8.4 | 38 | 49
6 | CS(=O)(=O)O.C[C@@H](NCc1ccc(OCc2cccc(Cl)c2)cc1)C(N)=O [2-[4-(3-chlorobenzyloxy)benzylamino]-propanamide R isomer, (R)-2-[4-(3-chlorobenzyloxy)benzylamino]propanamide methanesulfonate] | 32.3 | 20 | 39 | 39
